Assay results from patent publication US7915282B2, “C2-phenyl-substituted cyclic keto-enols used as pesticides and herbicides” (Bayer Aktiengesellschaft, priority 2000, dated 2011).

Assays:
Format in all cases: in vivo
[1] = test system: peach aphids (Myzus persicae); experiment: Myzus test; conditions: active compound concentration of 1000 ppm; after 6 days; infested cabbage leaves dipped
Experimental: [table] To produce a suitable preparation of active compound, 1 part by weight of active compound is mixed with the stated amounts of solvent and emulsifier, and the concentrate is diluted with emulsifier-containing water to the desired concentration. Cabbage leaves (Brassica oleracea) which are heavily infested by the peach aphids (Myzus persicae) are treated by being dipped into the preparation of active compound of the desired concentration. After the desired period of time, the kill in % is determined. 100% means that all aphids have been killed; 0% means that none of the aphids have been killed.

[2] = test system: larvae of the mustard beetle (Phaedon cochleariae); experiment: Phaedon larvae test; conditions: active compound concentration of 1000 ppm; after 7 days; cabbage leaves dipped
Experimental: [table] To produce a suitable preparation of active compound, 1 part by weight of active compound is mixed with the stated amounts of solvent and emulsifier, and the concentrate is diluted with emulsifier-containing water to the desired concentration. Cabbage leaves (Brassica oleracea) are treated by being dipped into the preparation of active compound of the desired concentration and are populated with larvae of the mustard beetle (Phaedon cochleariae) while the leaves are still moist. After the desired period of time, the kill in % is determined. 100% means that all beetle larvae have been killed; 0% means that none of the beetle larvae have been killed.

[3] = test system: greenhouse red spider mite (Tetranychus urticae); experiment: Tetranychus test (OP-resistant/dip treatment); conditions: active compound concentration of 1000 ppm; after 7 days; infested bean plants dipped
Experimental: [table] To produce a suitable preparation of active compound, 1 part by weight of active compound is mixed with the stated amounts of solvent and emulsifier, and the concentrate is diluted with emulsifier-containing water to the desired concentration. Bean plants (Phaseolus vulgaris) which are heavily infested by all stages of the greenhouse red spider mite (Tetranychus urticae) are dipped into a preparation of active compound of the desired concentration. After the desired period of time, the effect in % is determined. 100% means that all spider mites have been killed; 0% means that none of the spider mites have been killed.

Lolium [4] = experiment: Pre-emergence test; conditions: 125 g ai/ha, after three weeks
Experimental: (§1) [table] To produce a suitable preparation of active compound, 1 part by weight of active compound is mixed with the stated amount of solvent, the stated amount emulsifier is added and the concentrate is diluted with water to the desired concentration. Seeds of the test plants are sown in normal soil. After about 24 hours, the soil is sprayed with the preparation of active compound such that the particular amounts of active compound desired are applied per unit area. The concentration of the spray liquor is chosen such that the particular amounts of active compound desired are applied in 1000 l of water/ha. After three weeks, the degree of damage to the plants is rated in % damage in comparison to the development of the untreated controls. The figures denote: [table]

Avena fatua = experiment: Pre-emergence test; conditions: 125 g ai/ha, after three weeks
Experimental: as §1

Alopecurus = experiment: Pre-emergence test; conditions: 125 g ai/ha, after three weeks
Experimental: as §1

Echinochloa = experiment: Pre-emergence test; conditions: 125 g ai/ha, after three weeks
Experimental: as §1

Setaria [5] = experiment: Pre-emergence test; conditions: 125 g ai/ha, after three weeks
Experimental: as §1

Digitaria [6] = experiment: Pre-emergence test; conditions: 125 g ai/ha, after three weeks
Experimental: as §1

[7] = test system: green rice leaf hopper (Nephotettix cincticeps); experiment: Nephotettix test; conditions: active compound concentration of 1000 ppm; after 6 days; rice seedlings dipped
Experimental: [table] To produce a suitable preparation of active compound, 1 part by weight of active compound is mixed with the stated amounts of solvent and emulsifier, and the concentrate is diluted with emulsifier-containing, water to the desired concentration. Rice seedlings (Oryza sativa) are treated by being dipped into the preparation of active compound of the desired concentrated and are populated with the green rice leaf hopper (Nephotettix cincticeps) while the leaves are still moist. After the desired period of time, the kill in % is determined. 100% means that all leaf hoppers have been killed; 0% means that none of the leaf hoppers have been killed.

Lolium [8] = experiment: Post-emergence test; conditions: 125 g ai/ha, after three weeks
Experimental: (§2) [table] To produce a suitable preparation of active compound, 1 part by weight of active compound is mixed with the stated amount of solvent, the stated amount of emulsifier is added and the concentrate is diluted with water to the desired concentration. Test plants of a height of 5-15 cm are sprayed with the preparation of active compound such that the particular amounts of active compound desired are applied per unit area. The concentration of the spray liquor is chosen such that the particular amount of active compound desired is applied in 1000 l of water/ha. After three weeks, the degree of damage to the plants is rated in % damage in comparison to the development of the untreated control. The figures denote: [table]

Setaria [9] = experiment: Post-emergence test; conditions: 125 g ai/ha, after three weeks
Experimental: as §2

Galium = experiment: Post-emergence test; conditions: 125 g ai/ha, after three weeks
Experimental: as §2

Digitaria [10] = experiment: Post-emergence test; conditions: 125 g ai/ha, after three weeks
Experimental: as §2

Soya bean = experiment: Post-emergence test; conditions: 125 g ai/ha, after three weeks
Experimental: as §2

Wheat = experiment: Post-emergence test; conditions: 125 g ai/ha, after three weeks
Experimental: as §2

Cotton = experiment: Post-emergence test; conditions: 125 g ai/ha, after three weeks
Experimental: as §2

Row | SMILES | kill in % [2] [%] | kill in % [3] [%] | % damage Lolium (Lolium [8]) [%] | % damage Setaria (Setaria [9]) [%] | % damage Digitaria (Digitaria [10]) [%] | also measured
1 | C=Cc1cc(C)c(C2=C(OC(=O)C(C)(C)C)C3(CCC(C)CC3)OC2=O)c(C)c1 (stereo not drawn) [Example I-2-b-6] | 100 |  |  |  |  | kill in % [1]: 100%
2 | CCc1cc(C)c(C2=C(O)C3(CCC(OC)CC3)NC2=O)c(CC)c1 (stereo not drawn) [Example I-1-a-3] | 100 | 100 | 70 | 90 | 80 | % damage Lolium (Lolium [4]): 100%; % damage Avena fatua (Avena fatua): 95%; % damage Alopecurus (Alopecurus): 100%; % damage Echinochloa (Echinochloa): 100%; % damage Setaria (Setaria [5]): 100%; % damage Digitaria (Digitaria [6]): 100%; kill in % [7]: 100%; % damage Galium (Galium): 80%
3 | CCc1cc(C)c(C2=C(O)C(C)(C)NC2=O)c(CC)c1 [Example I-1-a-1] |  |  |  |  |  | kill in % [7]: 100%
4 | C=Cc1cc(C)c(C2=C(OC(=O)C(C)(C)C)C3(CCCCC3)OC2=O)c(C)c1 [Example I-2-b-2] |  | 100 |  |  |  | 
5 | C=Cc1cc(C)c(C)cc1C1=C(OC(=O)C(C)C)C2(CCC(OC)CC2)OC1=O (stereo not drawn) [Example I-2-b-13] |  |  | 70 | 95 | 80 | % damage Soya bean (Soya bean): 0%; % damage Wheat (Wheat): 10%; % damage Cotton (Cotton): 0%
6 | C=Cc1cc(C)cc(C)c1C1=C(OC(=O)C(C)(C)C)C2(CCC(OC)CC2)OC1=O (stereo not drawn) [Example I-2-b-8] | 100 | 100 |  |  |  | 
7 | C=Cc1cc(C)c(C2=C(OC(=O)C(C)CC)C3(CCC(OC)CC3)OC2=O)cc1C (stereo not drawn) [Example I-2-b-12] |  |  | 90 | 95 | 95 | % damage Soya bean (Soya bean): 0%; % damage Cotton (Cotton): 0%
